Assay results taken from ChEMBL document CHEMBL1201862, “PubChem BioAssay data set” (2004).
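In this assay, cells in 96-well plates receive the compound at five concentrations for 48 hours. Endpoints are linearly interpolated between the surrounding concentrations. GI50 is the concentration that inhibits growth by half.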 Active and inactive are the calls of the source. Cut-off read from the data, not from the text of the source: active = GI50 up to about 1.1 µM and inactive = higher.

How the values were obtained:
Assay in all cases: NCI tumour cell line growth inhibition, 48 h
NCI-H226 = tested on: NCI-H226
NCI-H522 = tested on: NCI-H522
M14 = tested on: M14
SK-OV-3 = tested on: SK-OV-3
SNB-75 = tested on: SNB-75
SNB-19 = tested on: SNB-19
Malme-3M = tested on: Malme-3M
UACC-257 = tested on: UACC-257
A498 = tested on: A498
EKVX = tested on: EKVX
HCT-116 = tested on: HCT-116
ACHN = tested on: ACHN
RXF 631 = tested on: RXF 631
HT-29 = tested on: HT-29
A549 = tested on: A549
NCI-H460 = tested on: NCI-H460
SN12C = tested on: SN12C
SF-295 = tested on: SF-295
MCF7 = tested on: MCF7
NCI/ADR-RES = tested on: NCI/ADR-RES

Measured: GI50

CNC(=O)CN1CC(=O)N(C)C(=O)C1
inactive: NCI-H226 > 100 µM | NCI-H522 > 100 µM | M14 > 100 µM | SK-OV-3 > 100 µM | SNB-75 > 100 µM | SNB-19 > 100 µM | Malme-3M > 100 µM

COc1ccc(Oc2ccccc2N)cc1
inactive: NCI-H226 41.9 µM | UACC-257 57.4 µM | A498 > 100 µM | EKVX 93.8 µM | HCT-116 17.2 µM | M14 58.7 µM | SK-OV-3 > 100 µM | ACHN 24.5 µM | RXF 631 > 100 µM | SNB-75 23.7 µM | HT-29 39.9 µM | A549 38.1 µM | NCI-H460 30.6 µM | SN12C 44.8 µM | Malme-3M > 100 µM | SF-295 26.1 µM

Nc1cc(-c2ccccc2)nn1-c1nsc2ccccc12
inactive: UACC-257 > 100 µM | EKVX 47.8 µM | HCT-116 73.3 µM | M14 > 100 µM | ACHN > 100 µM | SNB-75 19.7 µM | HT-29 91.2 µM | SNB-19 > 100 µM | A549 > 100 µM | NCI-H460 60.8 µM | SN12C 99.8 µM

CC1(C)Cc2c(C#N)c(N)c3c(c2CO1)C(=O)OC3=O
inactive: NCI-H226 > 100 µM | EKVX > 100 µM | NCI-H522 > 100 µM | HCT-116 > 100 µM | M14 > 100 µM | SK-OV-3 > 100 µM | ACHN > 100 µM | HT-29 > 100 µM | SNB-19 > 100 µM | A549 > 100 µM | NCI-H460 > 100 µM | SN12C > 100 µM | Malme-3M > 100 µM

CCC(=C(C#N)C#N)c1cc(OC)c(OC)c(OC)c1
inactive: NCI-H226 > 100 µM | EKVX > 100 µM | NCI-H522 > 100 µM | HCT-116 > 100 µM | M14 > 100 µM | SK-OV-3 > 100 µM | ACHN > 100 µM | HT-29 > 100 µM | SNB-19 > 100 µM | A549 > 100 µM | NCI-H460 > 100 µM | SN12C > 100 µM | Malme-3M > 100 µM

O=C(O)CCC(NC(=O)c1ccc(Nc2nc3cc(C(F)(F)F)ccc3nc2-c2ccccc2)cc1)C(=O)O (configuration not stated)
inactive: NCI-H226 > 100 µM | MCF7 64.9 µM | UACC-257 > 100 µM | A498 > 100 µM | EKVX > 100 µM | NCI-H522 35.6 µM | HCT-116 71 µM | SK-OV-3 > 100 µM | NCI/ADR-RES 62.1 µM | SNB-75 > 79.6 µM | HT-29 18.8 µM | SNB-19 > 100 µM | A549 > 86.1 µM | NCI-H460 43.3 µM | SN12C > 100 µM | Malme-3M > 100 µM | SF-295 20.4 µM
